According to patent EP4763839A1 (Pamplona Therapeutics (Shenzhen) Co., Ltd., priority 2023, dated 2025):
Counter-ions that a name gives are not always drawn.

Target: T1, IRAK4 (Homo sapiens, UniProt Q9NWZ3)
T1 sequence (Q9NWZ3 1-460): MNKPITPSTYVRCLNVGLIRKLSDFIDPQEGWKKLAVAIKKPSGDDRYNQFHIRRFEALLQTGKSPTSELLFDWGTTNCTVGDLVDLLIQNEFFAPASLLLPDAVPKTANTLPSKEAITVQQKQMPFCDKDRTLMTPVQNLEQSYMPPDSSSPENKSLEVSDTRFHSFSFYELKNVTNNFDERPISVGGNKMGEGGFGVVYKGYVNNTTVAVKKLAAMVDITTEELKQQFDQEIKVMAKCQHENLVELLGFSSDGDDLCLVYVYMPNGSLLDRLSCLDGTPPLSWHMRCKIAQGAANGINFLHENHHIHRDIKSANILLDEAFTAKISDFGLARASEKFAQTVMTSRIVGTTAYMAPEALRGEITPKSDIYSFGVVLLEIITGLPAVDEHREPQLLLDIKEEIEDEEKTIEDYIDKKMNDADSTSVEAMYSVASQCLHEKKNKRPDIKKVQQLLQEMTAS
Assay: Degradation of IRAK4 in THP1 cells, Western blot
Assay type: cell-based
Set-up: Degradation of IRAK4 in THP1 by compound; host or cells: THP-1
Conditions: THP-1 cells, 24 hours of incubation; for DC50: IRAK4 protein by Western blot, read-out: DC50; for Dmax: maximum degradation rate, read-out: Dmax
Protocol: After 24 hours of incubation, the cells were collected into 1.5 mL centrifuge tubes and centrifuged at 1,000 rpm for 5 minutes. […] The supernatants were collected, and the IRAK4 protein levels were respectively detected by Western blot (WB). The total protein concentration in the cell lysate supernatant was determined using a BCA protein quantification kit (NCM). Based on the total protein concentration detected by BCA, the samples were adjusted to 2 μg/μL using cell lysis buffer and 5×SDS-PAGE protein loading buffer (Beyotime), heated at 95°C for 5 minutes in a metal bath, and then placed on ice for an ice bath for 5 minutes before being used as the loading samples for Western blot analysis. Protein electrophoresis was performed using a 10% SDS-PAGE gel with a loading volume of 20 μL (total protein 40 μg) and Tris-SDS electrophoresis at a constant voltage of 80 V. After electrophoresis, the proteins on the gel were transferred to a 0.2 μm PVDF membrane (Immobilon) using a semi-dry transfer method at 0.5 A and 20 V for 60 minutes. After transfer, the membrane was placed in 5% skimmed milk and incubated at rt for 2 hours. After blocking, the PVDF membrane was incubated with primary antibody against IRAK4 (Abcam) at 4°C overnight. […] The color development and protein band imaging were performed using a chemiluminescence imaging system ([…] Technology Co., Ltd.). The protein bands were analyzed for grayscale values using Image J analysis software. The corrected grayscale values for each sample were calculated and then compared with those of the control group treated with DMSO alone to calculate the degradation rate.

`NC(=O)c1nn(-c2ccc(COC3CC4(CCN(CC5CCN(c6ccc(NC7CCC(=O)NC7=O)cc6F)CC5)CC4)C3)cc2)cc1NC(=O)c1cccc(C(F)(F)F)n1` (stereo not drawn) [Compound A317, N-(3-Carbamoyl-1-(4-(((7-((1-(4-((2,6-dioxopiperidin-3-yl)amino)-2-fluorophenyl)piperidin-4-yl)methyl)-7-azaspiro[3.5]nonan-2-yl)oxy)methyl)phenyl)-1H-pyrazol-4-yl)-6-(trifluoromethyl)picolinamide] was tested. Which DC50 did it give?
The DC50 was under 100 nM.

What about the Dmax of the same compound?
Its Dmax is over 60%.

With `COc1ccc(C(=O)N2CCC3(CC2)CC(Cc2ccc(-n4cc(NC(=O)c5cccc(C(F)(F)F)n5)c(C(N)=O)n4)cc2)C3)cc1N1CCC(=O)NC1=O` [Compound A318, N-(3-Carbamoyl-1-(4-((7-(3-(2,4-dioxotetrahydropyrimidin-1(2H)-yl)-4-methoxybenzoyl)-7-azaspiro[3.5]nonan-2-yl)methyl)phenyl)-1H-pyrazol-4-yl)-6-(trifluoromethyl)picolinamide] as the compound, how does the DC50 read?
Its DC50 is under 100 nM.

What about the Dmax of the same compound?
Its Dmax is over 60%.

Which results are given for `Cn1c(=O)n(C2CCC(=O)NC2=O)c2cccc(N3CCC4(CC3)CN(Cc3ccc(-n5cc(NC(=O)c6cccc(C(F)(F)F)n6)c(C(N)=O)n5)cc3)C4)c21` (stereo not drawn) [Compound A319, N-(3-carbamoyl-1-(4-((7-(1-(2,6-dioxopiperidin-3-yl)-3-methyl-2-oxo-2,3-dihydro-1H-benzo [d]imidazol-4-yl)-2,7-diazaspiro[3.5]nonan-2-yl)methyl)phenyl)-1H-pyrazol-4-yl)-6-(trifluoromethyl)picolinamide]?
DC50: 100 to 1000 nM; Dmax: 40 to 60%

Which results are given for `Cn1c(=O)n(C2CCC(=O)NC2=O)c2cccc(N3CCC4(CC3)CC(NC(=O)c3ccc(-n5cc(NC(=O)c6cccc(C(F)(F)F)n6)c(C(N)=O)n5)cc3)C4)c21` (stereo not drawn) [Compound A320]?
DC50: < 100 nM; Dmax: > 60%

For `Cn1c(=O)n(C2CCC(=O)NC2=O)c2cccc(N3CCC4(CC3)CN(C(=O)Cc3ccc(-n5cc(NC(=O)c6cccc(C(F)(F)F)n6)c(C(N)=O)n5)cc3)C4)c21` (stereo not drawn) [Compound A321, N-(3-Carbamoyl-1-(4-(2-(7-(1-(2,6-dioxopiperidin-3-yl)-3-methyl-2-oxo-2,3-dihydro-1H-benzimidazol-4-yl)-2,7-diazaspiro[3.5]nonan-2-yl)-2-oxoethyl)phenyl)-1H-pyrazol-4-yl)-6-(trifluoromethyl)picolinamide], which DC50 is on record?
The DC50 was under 100 nM.

What about the Dmax of the same compound?
The Dmax was over 60%.

`Cn1c(=O)n(C2CCC(=O)NC2=O)c2cccc(N3CCC4(CC3)CC(NCc3ccc(-n5cc(NC(=O)c6cccc(-c7ccn[nH]7)n6)c(S(N)(=O)=O)n5)cc3)C4)c21` (stereo not drawn) [Compound A322, N-(1-(4-(((7-(1-(2,6-dioxopiperidin-3-yl)-3-methyl-2-oxo-2,3-dihydro-1H-benzo[d]imidazol-4-yl)-7-azaspiro[3.5]nonan-2-yl)amino)methyl)phenyl)-3-sulfamoyl-1H-pyrazol-4-yl)-6-(1H-pyrazol-5-yl)picolinamide] was tested. Which DC50 did it give?
Its DC50 is under 100 nM.

What about the Dmax of the same compound?
Its Dmax is over 60%.

What does the source list for `COc1ccc(C(=O)N2CCC(CCN3CCN(c4ccc(-n5cc(NC(=O)c6cccc(-c7ccn[nH]7)n6)c(S(N)(=O)=O)n5)cc4)CC3)CC2)cc1N1CCC(=O)NC1=O` [Compound A324]?
DC50: < 100 nM; Dmax: > 60%

With `NS(=O)(=O)c1nn(-c2ccc(N3CCN(CC4CCN(c5ccc(NC6CCC(=O)NC6=O)cc5F)CC4)CC3)cc2)cc1NC(=O)c1cccc(-c2ccn[nH]2)n1` (stereo not drawn) [Compound A325, N-(1-(4-(4-((1-(-4-((2,6-dioxopiperidin-3-yl)amino)-2-fluorophenyl)piperidin-4-yl)methyl)piperazin-1-yl)phenyl)-3-sulfamoyl-1H-pyrazol-4-yl)-6-(1H-pyrazol-5-yl)picolinamide] as the compound, how does the DC50 read?
The DC50 was under 100 nM.

And the Dmax?
The Dmax was over 60%.

How did the DC50 turn out when `Cn1c(=O)n(C2CCC(=O)NC2=O)c2ccc(N3CCC(CN4CCN(c5ccc(-n6cc(NC(=O)c7cccc(-c8ccn[nH]8)n7)c(S(N)(=O)=O)n6)cc5)CC4)CC3)cc21` (stereo not drawn) [Compound A326, N-[3-(aminodioxyylidene-λ6-thio)-1-{4-[4-({1-[1-(2,6-dioxopiperidin-3-yl)-3-methyl-2-oxobenzo[d]imidazol-5-yl]piperidin-4-yl}methyl)piperazin-1-yl]phenyl}pyrazol-4-yl]-6-(2H-pyrazol-3-yl)pyridine-2-carboxamide] was run?
The DC50 was under 100 nM.

And the Dmax?
The Dmax was over 60%.

`Cn1c(=O)n(C2CCC(=O)NC2=O)c2cccc(N3CCC(CN4CCN(c5ccc(-n6cc(NC(=O)c7cccc(-c8ccn[nH]8)n7)c(S(N)(=O)=O)n6)cc5)CC4)CC3)c21` (stereo not drawn) [Compound A327, N-(1-(4-(4-((1-(1-(2,6-dioxopiperidin-3-yl)-3-methyl-2-oxo-2,3-dihydro-1H-benzo[d]imidazol-4-yl)piperidin-4-yl)methyl)piperazin-1-yl)phenyl)-3-sulfamoyl-1H-pyrazol-4-yl)-6-(1H-pyrazol-5-yl)picolinamide] was tested. Which DC50 did it give?
The DC50 was under 100 nM.

And the Dmax?
The Dmax was over 60%.

Which DC50 does the source give for `COc1ccc(C(=O)N2CCC(CCN3CCN(c4ccc(-n5cc(NC(=O)c6cccc(-c7ccn[nH]7)n6)c(S(N)(=O)=O)n5)cc4)CC3)C2)cc1N1CCC(=O)NC1=O` (stereo not drawn) [Compound A328, N-(1-(4-(4-(1-(3-(2,4-dioxotetrahydropyrimidin-1(2H)-yl)-4-methoxybenzoyl)pyrrolidin-3-ethyl)piperazin-1-yl)phenyl)-3-sulfonylamino-1H-pyrazol-4-yl)-6-(1H-pyrazol-5-yl)picolinamide trifluoroacetate] here?
The DC50 was under 100 nM.

And the Dmax?
The Dmax was over 60%.

Which results are given for `COc1ccc(C(=O)N2CCC(CN3CCN(c4ccc(-n5cc(NC(=O)c6cccc(-c7ccn[nH]7)n6)c(S(N)(=O)=O)n5)cc4)CC3)C2)cc1N1CCC(=O)NC1=O` (stereo not drawn) [Compound A329, N-(1-(4-(4-((1-(3-(2,4-dioxotetrahydropyrimidin-1(2H)-yl)-4-methoxybenzoyl)pyrrolidin-3-yl)methyl)piperazin-1-yl)phenyl)-3-sulfamoyl-1H-pyrazol-4-yl)-6-(1H-pyrazol-5-yl)picolinamide trifluoroacetate]?
DC50: < 100 nM; Dmax: > 60%

Which results are given for `Cn1c(=O)n(C2CCC(=O)NC2=O)c2cccc(NCC3CCC4(CC3)CCN(C(=O)c3ccc(-n5cc(NC(=O)c6cccc(-c7ccn[nH]7)n6)c(S(N)(=O)=O)n5)cc3)CC4)c21` (stereo not drawn) [Compound A330]?
DC50: < 100 nM; Dmax: > 60%

With `Cn1c(=O)n(C2CCC(=O)NC2=O)c2cccc(N3CCC(C(=O)N4CCN(Cc5ccc(-n6cc(NC(=O)c7cccc(-c8ccn[nH]8)n7)c(S(N)(=O)=O)n6)cc5)CC4)CC3)c21` (stereo not drawn) [Compound A331, N-(1-(4-((4-(1-(1-(2,6-dioxopiperidin-3-yl)-3-methyl-2-oxo-2,3-dihydro-1H-benzo[d]imidazol-4-yl)piperidine-4-carbonyl)piperazin-1-yl)methyl)phenyl)-3-sulfamoyl-1H-pyrazol-4-yl)-6-(1H-pyrazol-5-yl)picolinamide] as the compound, how does the DC50 read?
The DC50 was under 100 nM.

And the Dmax?
The Dmax was over 60%.

What does the source list for `Cn1c(=O)n(C2CCC(=O)NC2=O)c2cccc(N3CCN(C(=O)C4CCN(Cc5ccc(-n6cc(NC(=O)c7cccc(-c8ccn[nH]8)n7)c(S(N)(=O)=O)n6)cc5)CC4)CC3)c21` (stereo not drawn) [Compound A332, N-(1-(4-((4-(4-(1-(2,6-Dioxopiperidin-3-yl)-3-methyl-2-oxo-2,3-dihydro-1H-benzo[d]imidazol-4-yl)piperazine-1-carbonyl)piperidin-1-yl)methyl)phenyl)-3-sulfamoyl-1H-pyrazol-4-yl)-6-(1H-pyrazol-5-yl)picolinamide]?
DC50: < 100 nM; Dmax: > 60%

With `Cn1c(=O)n(C2CCC(=O)NC2=O)c2cccc(NCCN3CCC4(CCN(C(=O)c5ccc(-n6cc(NC(=O)c7cccc(-c8ccn[nH]8)n7)c(S(N)(=O)=O)n6)cc5)C4)C3)c21` (stereo not drawn) [Compound A333] as the compound, how does the DC50 read?
The DC50 was under 100 nM.

And the Dmax?
The Dmax was over 60%.

How did the DC50 turn out when `Cn1c(=O)n(C2CCC(=O)NC2=O)c2cccc(NCCN3CC4(C3)CN(Cc3ccc(-n5cc(NC(=O)c6cccc(-c7ccn[nH]7)n6)c(S(N)(=O)=O)n5)cc3)C4)c21` (stereo not drawn) [Compound A334] was run?
Its DC50 is under 100 nM.

And the Dmax?
Its Dmax is over 60%.

For `Cn1c(=O)n(C2CCC(=O)NC2=O)c2cccc(C#CCOC3CCN(C(=O)c4ccc(-n5cc(NC(=O)c6cccc(-c7ccn[nH]7)n6)c(S(N)(=O)=O)n5)cc4)CC3)c21` (stereo not drawn) [Compound A335, N-(1-(4-(4-((3-(1-(2,6-Dioxopiperidin-3-yl)-3-methyl-2-oxo-2,3-dihydro-1H-benzo[d]imidazol-4-yl)prop-2-yn-1-yl)oxy)piperidine-1-carbonyl)phenyl)-3-sulfamoyl-1H-pyrazol-4-yl)-6-(1H-pyrazol-5-yl)picolinamide], which DC50 is on record?
Its DC50 is under 100 nM.

What about the Dmax of the same compound?
Its Dmax is over 60%.
